The values below come from PMC11885506, “Evaluation of a non-animal toolbox informed by adverse outcome pathways for human inhalation safety” (Frontiers in Toxicology, 2025).

Entries after “also recorded” stand apart in the source; their conditions may differ. Structures can show the parent of a compound that is named as a salt.

The subject of one series is patients. More on the design: method as in Budin et al., 2022. To be noted: ref Budin et al., 2022; cited from earlier work.
For another series, the system named is EpiAlveolar™ model. Nature of the series: Bioactivity exposure ratio (BER): lowest in vitro PoD of EpiAlveolar readouts / lower respiratory tract exposure estimate or Cmax. More on the design: species or system human. To be noted: Plasma.
For series [1] the following is noted: cited from earlier work.
The test system of series [2] is EpiAlveolar™ tissues. Nature of the series: Cytokine and chemokine measurements (Luminex), EpiAlveolar model, Laboratory 1. In kind it is cell-based, human. To be noted: for MinPoD: EpiAlveolar™ model Laboratory-1, biomarker ICAM-1. The source says: (§1) EpiAlveolar™ system was obtained from MatTek Corporation (Ashland, MA, United States, cat. no. ALV-100-FT-MAC, ALV-100-FT-MAC-PE12). According to the supplier, the tissue systems were derived from primary human alveolar epithelial cells and primary pulmonary fibroblasts, both from a same healthy donor, and pulmonary endothelial cells from another healthy donor, and THP-1 cell line derived macrophages. These tissues were differentiated by the manufacturer prior to shipping to the testing facilities. […] TEER was measured and only systems with confirmed quality of the tight junction barrier (>300 Ω.cm^2) and with approved morphological inspection were used in the experiments.
(§2) Vehicle control groups were also tested in parallel. Except for Doxorubicin (which underwent a 6-day chemical exposure + 6-day without exposure), exposures were conducted daily, on 12 consecutive days with different concentrations, through aerosol, apical or basolateral liquid exposure methods (Table 2). […] Each of the insert holders of the instrument base module was filled with Hanks’ Balanced Salt solution (HBSS) or PBS prior to placing the tissue inserts. Then, each test item solution/suspension was placed into the nebulizer reservoir for aerosol material exposure. The nebulizer was activated until the material solution/suspension was consumed and discharged into the main exposure chamber and allowed to fully gravity deposit out of the Cloud 12 (determined using a QCM). After exposure, the tissues were placed back into their multi-well culture plates containing the same medium, a further aliquot of media was added apically (20 µL for Akemi, 75 µL for all others except LPS) and returned to incubator until next exposure. Media used during the 6- or 12-day experimental period was prepared without Supplement X by MatTek. In medium exposure, the apical or basolateral liquid of each tissue was removed and replaced with each test item medium solution/suspension and returned to the incubator until the next exposure. After the beginning of the exposure cycles, tissues were only re-fed with new culture medium every 3-4 days.
In Laboratory 1, basal media samples collected from the tissues were collected and stored at ≤ −60°C until analysis. For cytokine/chemokine measurements, 17-Plex, duplex and single-plex analyte detection panels were run on the samples using Human Luminex™ Multiplex Immunoassay kits (R&D Systems). The analytes quantified were TNF-α, IL-6, MMP-9, MMP-3, MMP-1, MMP-2, CXCL10, CCL2, IFN-γ, IL-1ra, CCL7, IL-1a, CCL26, CXCL9, VCAM-1, ICAM-1, and CXCL11 in a 17-plex assay; whereas IL-8 and Serpin E1 in a duplex assay and TGF-β1 in a single-plex assay.

Series [3] relates to EpiAlveolar™ tissues. Nature of the series: Histology and immunohistochemistry, EpiAlveolar model, Laboratory 2. To be noted: Laboratory 2, 12-day period.
Description: To evaluate the quality of EpiAlveolar™ tissues over the 12-day experimental period, histological and immunohistochemistry assessments for detection of pan-cytokeratin, vimentin, aquaporin 5, pro-surfactant C, CD68, caspase-3, and/or αSMA were performed by Laboratories 1 and 2.
Tissues were kept in 10% phosphate buffered formalin at 4°C for up to 48 h. Samples were then fixed in 70% ethanol and two strips of membrane were trimmed from each sample, processed, and paraffin-embedded to be cut at 5 µm thick sections and mounted to glass slides. The slides were then dewaxed in xylene, hydrated using graded industrial methylated spirit (70-100%) and stained with H&E for light microscope analysis.
For immunohistochemistry analysis, tissue sections-containing microscope slides were obtained and processed using a Discovery Ultra Staining System (Roche), according to manufacturer’s instructions, except for anti-CD68 staining that was manually performed. The slides were incubated at 60°C for 8 min and then deparaffinized at 69°C for 24 min. After that, slides were incubated with inhibitor CM or peroxidase blocking solution (for anti-CD68 staining) for 8 min at room temperature. The slides were then incubated at room temperature with the following primary monoclonal antibodies, following manufacturer’s instructions: anti-α smooth muscle actin (αSMA) at 1:500 (Leica Microsystems Ltd), anti-CD68 at 1:3000 for macrophages (11192-T24, Sino Biological), anti-pro-surfactant C protein at 1:1000 (AB3786, Sigma-Aldrich), anti-caspase-3 at 1:10000 (AB4051, Abcam), anti-aquaporin 5 (31661, Invitrogen), anti-pan-cytokeratin for epithelial cells (760-2595, Roche), and anti-vimentin for mesenchymal cells (790-2917, Roche). […]
A board-certified pathologist evaluated the changes (epithelial thinning, separation/detachment areas, necrosis, collagen, and presence of apoptotic cells, myofibroblasts, and type II pneumocytes) using a semi-quantitative scoring system (Table 2).
Series [4] has as its system EpiAlveolar™ tissues. The series is described as follows: High-throughput transcriptomics (RNA-seq, PLIER latent variables), EpiAlveolar model, Laboratory 2. To be noted: Transcriptomics, biomarker 30. In kind it is cell-based, human.
In series [5] the test system is EpiAlveolar™ tissues. The series is described as follows: Cytokine and chemokine measurements (Luminex), EpiAlveolar model, Laboratory 2. In kind it is cell-based, human. To be noted: for MinPoD: EpiAlveolar™ model Laboratory-2.
Description: as §1, §2
In Laboratory 2, apical culture media samples of the tissues were collected, stored at −80°C until shipment, in dry ice with temperature monitor control, to Unilever SERS, where the analyses were performed. Upon receipt, samples were again stored in the −80°C until the analysis using Human Luminex® Discovery Assay kits (R&D Systems). The same readouts investigated for MucilAir™-HF tissue samples were quantified in these samples.

For series [6], the system named is MucilAir™-HF tissues. The series is described as follows: Mucin-5AC (Muc5AC) immunohistochemistry, goblet cells, MucilAir-HF model. The note with it: for Increase in cells expressing Muc5AC protein: 30 min/day. The class given is cell-based, human. How it is done: (§3) Tissues were handled as recommended by manufacturer’s instruction.
The presence of goblet cells was assessed through immunohistochemistry analysis for mucin-5AC protein (Muc5AC) detection. IL-13 and cytomix were used as positive controls (see item 2.5.2 for additional details). On last day of experiment (day 12), cultures (n = 3 tissues/group) were rinsed in PBS and fixed by immersion in 4% formaldehyde for 20 min. Fixed tissues were embedded into paraffin, sectioned, and processed for staining on paraffin sections. The immunostaining of the sections was performed with the Benchmark automated platform (Ventana-Roche, Hoffmann-La Roche Ltd, Basel, Switzerland) and the Autostainer Link 48 (Agilent, Santa Clara, CA. United States) with the detection kit Ultraview DAB (DAB chromogeny, Hoffmann-La Roche Ltd). Sections were pre-treated using heat mediated antigen retrieval with sodium citrate buffer, pH 6, for 20 min. The section was then incubated with recombinant anti-mucin 5AC antibody (ab3649, Abcam) for 1 h at room temperature, followed by biotinylated secondary antibody (Dako) and HRP detection (HRP conjugated ABC system, Vector Laboratories), according to manufacturer’s instruction. The section was then counterstained with hematoxylin (Sigma-Aldrich) and mounted with DPX, a synthetic non-aqueous mounting medium for microscopy. Digital images of the slides were then acquired, and quantitative image analysis performed using Image Pro Plus 6.2 (Media Cybernetics) to quantify the goblet cells on a section. The whole images of stained sections were scanned, and an average 15 images/section were analysed. The results are the ratio between the mucin 5AC stained area and the total surface area of the epithelium on the section.

Series [7] relates to MucilAir™-HF tissues. The series is described as follows: Mucin secretion measurement (enzyme-linked lectin assay), MucilAir-HF model. The class given is cell-based, human.
Description: as §3
Mucin production was quantified using an enzyme-linked lectin assay, following a protocol previously published ([Rossner et al., 2019]).

Another series concerns MucilAir™-HF model. The series is described as follows: Bioactivity exposure ratio (BER): lowest in vitro PoD of MucilAir-HF readouts / upper respiratory tract exposure estimate.
A further series relates to 16HBE14 o^− cells. The note with it: cited from earlier work.
The next series relates to NCI-H292 cells. To be noted: 1 µM for 48h; ref Matsuyama et al., 2018; cited from earlier work.
Series [8] has as its system primary human nasal epithelial cells. More on the design: method as in Uchenna Agu et al., 1999. The note with it: 10^-5 and 10^-3 M for 30-45 min; ref Uchenna Agu et al., 1999; cited from earlier work.
The subject of series [9] is MucilAir™-HF tissues. Nature of the series: Cytokine and chemokine measurements (Luminex), MucilAir-HF model. The class given is cell-based, human. To be noted: MucilAir-HF, 30 min/day exposure. On the procedure: as §3
Basolateral medium samples of the tissue cultures were collected and stored at −80°C until analysis. The following cytokines/chemokines were quantified using customized Human Luminex® Discovery Assay kits (R&D Systems): chemokine (C-C motif) ligand (CCL) 2, CCL7, CCL26, C-X-C motif chemokine ligand (CXCL) 10, CXCL11, intercellular adhesion molecule-1 (ICAM-1), IL-1α, IL-6, IL-8, matrix metalloproteinase (MMP)-1, MMP-2, MMP-3, MMP-7, MMP-9, osteopontin, interferon (IFN)-γ, IL-1 receptor antagonist (IL-1Ra), urokinase-type plasminogen activator receptor (uPAR), tumour necrosis factor (TNF)-α, urokinase (uPA), serpin E1, tissue inhibitor of metalloproteinase 1 (TIMP-1), and TGF-β1. Samples were measured in technical triplicates according to the manufacturer’s recommendation using a Luminex Bio-Plex® 200 RUO System ([…]).

Where [10] appears, read: 30 min/day exposure, day 12, High 1 concentration (third of the tested concentrations), average ± standard deviation.
Setting [11] is: 30 min/day exposure, day 12, Low concentration (first of the tested concentrations), average ± standard deviation.
Where [12] appears, read: 30 min/day exposure, day 12, Medium concentration (second of the tested concentrations), average ± standard deviation.

Description for EpiAlveolar™ model: (§4) Concentration and time-dependent changes in the bioactivity readout data were analyzed using a nonlinear state space model, based on the work of [Svensson and Schön (2017)]. […] All bioactivity readouts were included in the analysis (where available), i.e., measurements for tissue integrity loss (TEER) and functionality (MCC, CBF, and mucin secretion), cytokine/chemokine secretion, and the transcriptional LV values obtained using PLIER. The datasets were grouped so that a single state space model was used to capture all the responses (across time, concentration, and test material) for a single readout obtained within a particular study (laboratory/tissue model). Data were transformed to the log base 10 scale and normalized using z-scores, so that for a given readout Ytij from a laboratory/tissue model, the corresponding normalized value was given by y^tij=⁡log⁡10(Ytij)−μ)/σ . Here, the indexes i,j,t correspond to the different test materials, concentrations and timepoints, μ and σ are the sample mean and standard deviation of the control readout values obtained for the first timepoint. All measurement were then scaled so that the maximum median value across different replicates was one for all timepoints, readouts and test materials within a given laboratory/tissue model.
The model consists of state variables xti,j , response variables ytij and the concentrations of material c^i,j . The response variables yti,j represent the normalized (see below) readout values at timepoint t for material exposure i,j . The mean of the response variable is given by xti,j , so that yti,j∼xti,j+et , where et represents random fluctuations in the readout values, due to observational noise, which are taken to be normally distributed. Dynamical changes in state values are given by xti,j=fxt−1i,j,cti,j+vt . Here, fxt−1i,j,c^i,j is a non-linear function that represents interactions between different state variables and the perturbation caused by the test material at a given exposure at concentration c^i,j, and vt represents random fluctuations in state dynamics (which are also normally distributed). Following [Svensson and Schön (2017)], the nonlinear terms are based on an approximation to Gaussian processes, which are obtained using a basis function expansion-based approach. Inference of the model parameters was performed in the framework of Bayesian inference, wherein random draws of the posterior distribution were obtained using Sequential Monte Carlo (SMC), see [Svensson and Schön (2017)] and [Chopin and Papaspiliopoulos (2020)]. For each state space model representing a particular laboratory/readout dataset, SMC simulation was run for three chains at 5,000 iterations each, and first 1,000 iterations were discarded from the final posterior samples. The Rhat convergence diagnostic (Rhat < 1.1) was used to ensure the simulations had converged.
The state space model and posterior model parameter samples were then used to construct posterior predictive distributions of the response of each readout to a given test material for a given concentration and timepoint (see Figure 4). The posterior predictive distributions were used to estimate various statistics on the readout responses (median, 95% credible range etc.), PoDs, Concentration Dependency Scores (CDS) and two Effect Scores (increase and decrease). PoDs were defined as the concentration at which the mean response to a test material exceeded the 95% credible range of control for each timepoint (otherwise the mean response remains within the range of control). PoDs distribution for each timepoint, test material and readout, from which different statistical measures (e.g., the median, 95% credible range etc.) were calculated. The CDS was designed to provide confidence metric in whether an effect in the data was truly concentration dependent.
Description for MucilAir™-HF model: as §4
The model consists of state variables xti,j , response variables ytij and the concentrations of material c^i,j . The response variables yti,j represent the normalized (see below) readout values at timepoint t for material exposure i,j . The mean of the response variable is given by xti,j , so that yti,j∼xti,j+et , where et represents random fluctuations in the readout values, due to observational noise, which are taken to be normally distributed. Dynamical changes in state values are given by xti,j=fxt−1i,j,cti,j+vt . […] For each state space model representing a particular laboratory/readout dataset, SMC simulation was run for three chains at 5,000 iterations each, and first 1,000 iterations were discarded from the final posterior samples. […]

Consider `CCCCc1oc2ccccc2c1C(=O)c1cc(I)c(OCCN(CC)CC)c(I)c1` [Amiodarone, Amiodarone hydrochloride], for which the “Patients developing Amiodarone-induced pulmonary fibrosis following typical Amiodarone pneumonitis” value in the series with patients is recorded as 5%–7%. Also, the BER_min was 3.4764 in the series with EpiAlveolar™ model (Day 4, EpiAlveolar™ model Laboratory-2); 0.004237 in the series on EpiAlveolar™ model (Day 4, Transcriptomics); 0.6586 in the series on EpiAlveolar™ model (Day 8, EpiAlveolar™ model Laboratory-1); 2.602 in the series on EpiAlveolar™ model (Day 8, EpiAlveolar™ model Laboratory-2); 0.004247 with EpiAlveolar™ model (Day 8, Transcriptomics); 0.4855 in the series with EpiAlveolar™ model (Day 12, EpiAlveolar™ model Laboratory-1). Besides, the BER_min in the series on EpiAlveolar™ model (Day 12, EpiAlveolar™ model Laboratory-2) is on record as 2.516; in the series with EpiAlveolar™ model (Day 12, Transcriptomics), 0.004174. Further, the Risk entry in series [1] (Scenario Plasma) was “High”. The Risk classification entry in series [1] (per benchmark chemical-exposure scenario (product and exposure scenario of the same line), based on historical safety decisions, ref References column of Table 3) is on record as “High”. For the same compound, the “Cytokines/chemokines modulated (in words)” value in the series on EpiAlveolar™ tissues [2] (EpiAlveolar, Laboratory 1) is “upregulated levels of ICAM-1”; in the series with EpiAlveolar™ tissues [5] (EpiAlveolar, Laboratory 2) it was “upregulated levels of ICAM-1; also recorded: downregulated levels of MMP-1 and MMP-2”. The MinPoD in the series with EpiAlveolar™ tissues [2] (Day 8) is recorded as 1.317 μg/cm2; with EpiAlveolar™ tissues [2] (Day 12) it was 0.971 μg/cm2; in the series on EpiAlveolar™ tissues [4] (Day 4), 0.008474 μg/cm2; in the series with EpiAlveolar™ tissues [4] (Day 8) it was 0.008494 μg/cm2; in the series on EpiAlveolar™ tissues [4] (Day 12), 0.00835 μg/cm2; in the series with EpiAlveolar™ tissues [5] (Day 4, biomarker MMP-1), 6.9528 μg/cm2. For the same compound, the MinPoD in the series on EpiAlveolar™ tissues [5] (Day 8, biomarker ICAM-1) was 5.203 μg/cm2; in the series with EpiAlveolar™ tissues [5] (Day 12, biomarker ICAM-1) it was 5.033 μg/cm2. In the series on EpiAlveolar™ tissues [3], the “Histological changes compared to vehicle and control groups (in words)” value is reported as “changes were not observed”.

Take `O=c1ccc2ccccc2o1` [Coumarin]: the “% of Muc5AC area” value in the series on MucilAir™-HF tissues [6] (setting [10]) stood at 3.29 ± 0.36%; with MucilAir™-HF tissues [6] (setting [11]), 5.09 ± 0.57%; in the series with MucilAir™-HF tissues [6] (setting [12]), 6.83 ± 1.07%; in the series with MucilAir™-HF tissues [6] (6 h/day exposure, day 12, single tested concentration, average ± standard deviation) it was 2.85 ± 0.43%. For the same compound, the MinPoD in the series with MucilAir™-HF tissues [7] (Day 8, biomarker Mucins) is reported as 6.056 μg/cm2; in the series on MucilAir™-HF tissues [7] (Day 12, biomarker Mucins) it was 4.8708 μg/cm2. Besides, the BER_min is recorded as 30691.6 in the series on MucilAir™-HF model (Scenario1, Day 8) and 24110.2 in the series with MucilAir™-HF model (Scenario1, Day 12).

Take `CC(C)NCC(O)c1ccc(O)c(O)c1` (stereo not drawn) [Isoproterenol, Isoproterenol hydrochloride]: the IL-8 levels result in the series with 16HBE14 o^− cells (1-30 nM for 18h, 16HBE cells, ref Lindén, 1996) is “IL-8 levels were also increased”. The “IL-6 and IL-8 release” value with 16HBE14 o^− cells (10-100 nM for 24h, ref Oehme et al., 2015) is “significant increase of IL-6 and IL-8 release”. The “Increase in cells expressing Muc5AC protein” value is 2.5 fold in the series on MucilAir™-HF tissues [6] (50 μM) and 3 fold with MucilAir™-HF tissues [6] (100 μM). Also, the results for the “% of Muc5AC area” value with MucilAir™-HF tissues [6] (setting [10]), with MucilAir™-HF tissues [6] (setting [11]) and with MucilAir™-HF tissues [6] (setting [12]) were 18.91 ± 3.09%, 8.78 ± 1.62% and 15.53 ± 1.41%, respectively. For the same compound, the “MUC5AC mRNA expression” value in the series on NCI-H292 cells is recorded as “significant increase in MUC5AC mRNA expression”. Moreover, in series [8], the CBF result was “maximally and irreversibly increased ciliary CBF”. Also, the “Cytokines/chemokines modulated (in words)” value with MucilAir™-HF tissues [9] was “downregulation of MMP-7 only”.

For “IL-13: goblet cell hyper-, metaplasia agent used as positive control at 10 ng/mL”, in the series on MucilAir™-HF tissues [6] (positive control IL-13 at 10 ng/mL), the “Increase in cells expressing Muc5AC protein compared to unexposed tissues” value was determined as 4 fold. In the series on MucilAir™-HF tissues [6] (positive controls via liquid basal exposure, 30 min/day column, day 12, average ± standard deviation), the “% of Muc5AC area” value was 26.35 ± 3.34%.
